“Also recorded” adds a separate entry of the source. Like-named read-outs stand apart in the source and are kept apart here. Residues, ends and D or L forms follow the SMILES beside them. *: point of attachment. Cbz = O=C(OCc1ccccc1)*
Assays:
[1] = target: Na+/K+ ATPase human erythrocytes; parameters: method as in PMID 11072868; conditions: cited from earlier work
[2] = system: RBM20 dependent titin PEVK4-13 splicing reporter; assay: Dual luciferase splicing reporter assay (DLR assay), RBM20 co-transfected; type: cell-based, human; conditions: for IC50: Homo sapiens
From the text: The objective of our study was to identify and evaluate small molecules with the potential to modulate alternative splicing via an unbiased chemical high-throughput screening approach. Using transient transfection of a dual luciferase splicing reporter assay (DLR-assay) in HEK293.EBNA cells and a RBM20 expression construct, we investigated >34.000 substances for their effect on alternative exon exclusion from our RBM20 dependent titin PEVK4-13 splicing reporter. For the primary screen (pilot screen), each compound was tested at 10 μM (single point) and compared to an untreated control. Positive hits leading to differential exon usage (exceeding three standard deviations) were picked for independent validation in 9 serial 2-fold dilutions starting at 20 μM. Compounds that produced a concentration dependent effect were validated manually in the 96-well format and cytotoxicity was evaluated. To minimize the detection of false positives, we excluded compounds with structural homology to each luciferase’s natural substrate. To determine the EC50 of candidates we calculated dose response curves using a non-linear least-squares fitting routine available within the GNUPLOT package (accessible online: http://ic50.tk/index.html). […] Compounds that produced a concentration depend effect in the DLR-assay and altered the alternative transcript levels were regarded as validated alternative splicing modulators.
(§1) Cells transfected were at a confluency of 50-60%.
5000 HEK293.EBNA cells were seeded in clear bottom, white 384-well plates (Corning by Sigma-Aldrich Chemie GmbH, Munich, Germany) using an automated cell dispenser (Biotek, Bad Friedrichshall, Germany). 24 h after cell seeding the expression plasmids were delivered using a Freedom EVO® robotic workstation (TECAN, Maennedorf, Switzerland) equipped with a MultiChannel Arm™. Cells were transiently transfected with 45 ng plasmid DNA ([…] and 40 ng RBM20 or 24 ng of the negative control pcDNA3.1 ad 45 ng with bacterial expression plasmid pBSSK). Compounds were added to the plates the following day using the same robotic platform. Luciferase activity was determined using Dual-Glo® Luciferase Assay System (Promega GmbH, Mannheim, Germany) on an Infinite® M1000 Pro (TECAN, Maennedorf, Switzerland) plate reader around 60 hours post-transfection. Assay robustness was evaluated by calculation z’ scores using an online tool provided by the Screening Unit at FMP Berlin (http://www.screeningunit-fmp.net/tools/z-prime.php).

[3] = system: RBM20 protein levels; assay: RBM20 protein expression by immunoblot in co-transfected HEK293 cells; type: cell-based, human; conditions: proteasome inhibitor added to digoxin treated HEK293 cells
Method: For immunodetection, HEK293.EBNA samples were harvested by rinsing them of the cell culture substrate using PBS at 37°C and subsequently used for downstream processing or snap frozen in liquid nitrogen. For protein extraction samples were suspended in RIPA buffer (50 mM Tris pH 8.0, 150 mM NaCl, 1% NP-40, 0.25% sodium deoxycholate, 1.0 mM EDTA; 0.1% SDS) and lysed via sonication with 20 bursts at 70% energy using a VialTweeter (Hielscher Ultrasonics GmbH, Teltow, Germany). Protein concentration was estimated after 20’ precipitation of cell debris at 13,000xg for 20 min at 4°C using BCA assay (Life Technologies GmbH, Darmstadt, Germany [23225]). Samples were kept cool at any time. Lysates were separated by SDS-PAGE [14] and blotted on PVDF membranes. Blotted antigens were probed with mouse anti-c-myc 9E10 ([M5546], Sigma-Aldrich Chemie GmbH, Munich, Germany) tag antibody at 1:2000 and detected using a sheep anti-mouse IgG-HRP (GE Healthcare Europe GmbH, Freiburg, Germany [NA9310V]) conjugate 1:5000 follow by visualization with AceGlow™ (VWR PEQL37) on a FUSION FX7 CCD camera system (Vilber Lourmat Deutschland GmbH, Eberhardzell, Germany).

[4] = system: HEK293.EBNA cells; assay: Cell viability, resazurin based staining (PrestoBlue); parameters: species or system human; conditions: for IC50: Homo sapiens, HEK293-EBNA, HEK293 cells, 60 h post-transfection, RBM20/titin reporter transfected, read-out: Viability IC50
From the text: as §1

[5] = target: T1, RNA recognition motif (RRM) of RBM20 (Homo sapiens, UniProt Q5T481); assay: Surface plasmon resonance, immobilized RBM20-RRM; type: binding; conditions: SPR, increasing concentrations
T1 construct: The RRM domain of RBM20 was cloned into pGEX-6P-1 bacterial expression plasmid; GST (N); made in house; host or cells: E. coli Rosetta 2 (DE3)
T1 sequence (Q5T481 518-593 limits assumed): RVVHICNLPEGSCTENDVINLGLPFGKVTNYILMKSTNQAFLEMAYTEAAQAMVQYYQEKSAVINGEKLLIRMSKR
Method: The RRM domain of RBM20 was cloned into pGEX-6P-1 bacterial expression plasmid and expressed in E. coli Rosetta™ 2 (DE3) (Novagen by Merck KgaA, Darmstadt, Germany). After purification of the recombinant protein using glutathione-sepharose (Sigma-Aldrich Chemie GmbH, Munich, Germany) the purified fraction was dialyzed o/n in reaction buffer (20 mM HEPES pH7, 200 mM NaCl, 1 mM MgCl2, 10% glycerol). The surface plasmon resonance study (SPR) was performed on a Biacore T100 (GE Healthcare Europe GmbH, Freiburg, Germany) using amine coupling. Chip surface was activated with 0.2 M EDC/0.4 M NHS. 30 μg of human serum albumin (HSA) (positive control) or RBM20-RRM were linked to the activated chip surface at pH 4.5 in 10 mM sodium acetate.

[6] = system: HEK293 cells gene expression; assay: Expression profiling of digitoxin treated HEK293 cells (GSE36058); type: cell-based, human; conditions: digitoxin treated HEK293, GEO dataset GSE36058
Method: Expression profiling data (Gene Expression Omnibus—GSE36058) was analyzed using AltAnalyze [16]—gene expression cut-off = 1.0.

[7] = target: human serum albumin (HSA) (Homo sapiens, UniProt P02768); assay: Surface plasmon resonance, immobilized human serum albumin (positive control); type: binding; conditions: SPR, increasing concentrations
[8] = system: titin minigene TTN Ex241-43 transcripts; assay: RT-PCR / RT-qPCR of transcripts from titin minigene TTN Ex241-43 (I96-98); type: cell-based, human; conditions: HEK293 transfected with RBM20 and minigene I96-98
From the text: The objective of our study was to identify and evaluate small molecules with the potential to modulate alternative splicing via an unbiased chemical high-throughput screening approach. Using transient transfection of a dual luciferase splicing reporter assay (DLR-assay) in HEK293.EBNA cells and a RBM20 expression construct, we investigated >34.000 substances for their effect on alternative exon exclusion from our RBM20 dependent titin PEVK4-13 splicing reporter. For the primary screen (pilot screen), each compound was tested at 10 μM (single point) and compared to an untreated control. Positive hits leading to differential exon usage (exceeding three standard deviations) were picked for independent validation in 9 serial 2-fold dilutions starting at 20 μM. Compounds that produced a concentration dependent effect were validated manually in the 96-well format and cytotoxicity was evaluated. To minimize the detection of false positives, we excluded compounds with structural homology to each luciferase’s natural substrate. To determine the EC50 of candidates we calculated dose response curves using a non-linear least-squares fitting routine available within the GNUPLOT package (accessible online: http://ic50.tk/index.html). We evaluated the effect on splice activity on the RNA level by RT-qPCR of isoforms generated from a titin minigene containing TTN Ex241-43 (corresponding to TTN I-band exon I96-98) in the presence of the potential splice modulators. […]
Total RNA from HEK293.EBNA cells was extracted using RNeasy Micro Kit (Qiagen, Hilden, Germany) according to the manufacturer’s instructions. […] Quantitative RT-PCR was performed using SYBRGreen master mix (Applied Biosystems by Thermo Fisher Scientific Inc., USA) on a 7900 HT RT-cycler (Applied Biosystems by Thermo Fisher Scientific, Inc., USA). […] To quantification gene expression, we used the ΔΔCT method normalized to 18S or to the alternative transcripts generated from the splicing reporter. PSI values were calculated as ratio of unspliced and spliced reporter transcript. […]

[9] = HEK293, Table 1, read-out: IC50 Splicing HEK293 cells
[10] = FLuc/RLuc ratio, HEK293 cells, 96-well format, inset table of figure, read-out: Splicing IC50
[11] = dose response fit, head prints [μM], fits IC50 only

Sequence of human serum albumin (HSA) (P02768 25-609): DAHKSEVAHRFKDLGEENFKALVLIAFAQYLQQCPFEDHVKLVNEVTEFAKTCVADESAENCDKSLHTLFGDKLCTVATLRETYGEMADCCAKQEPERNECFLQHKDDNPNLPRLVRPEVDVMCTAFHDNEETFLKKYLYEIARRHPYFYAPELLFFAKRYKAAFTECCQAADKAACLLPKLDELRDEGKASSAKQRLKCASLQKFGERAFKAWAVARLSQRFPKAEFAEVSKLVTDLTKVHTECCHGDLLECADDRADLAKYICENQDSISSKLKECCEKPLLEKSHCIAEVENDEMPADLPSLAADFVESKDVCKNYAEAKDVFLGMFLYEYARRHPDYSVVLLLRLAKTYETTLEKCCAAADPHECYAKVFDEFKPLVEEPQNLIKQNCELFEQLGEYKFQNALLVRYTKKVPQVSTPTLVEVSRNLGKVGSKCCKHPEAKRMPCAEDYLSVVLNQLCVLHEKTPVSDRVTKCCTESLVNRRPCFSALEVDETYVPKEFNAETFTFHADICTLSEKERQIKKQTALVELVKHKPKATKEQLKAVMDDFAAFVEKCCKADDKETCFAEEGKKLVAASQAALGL

Which results are given for `C[C@@H]1O[C@@H](O[C@H]2C[C@@H](O)[C@]3(CO)[C@H]4[C@H](O)C[C@]5(C)[C@@H](C6=CC(=O)OC6)CC[C@]5(O)[C@@H]4CC[C@]3(O)C2)[C@H](O)[C@H](O)[C@H]1O` [Ouabain]?
IC50 [1]: 0.56 nM; effect on RBM20-mediated titin splicing (in words) ([2]; DLR assay, HEK293): suppresses RBM20 mediated titin splicing; IC50 [2, 9]: 1670 nM

For `CC(C)C[C@@H](C=O)NC(=O)[C@H](CC(C)C)NC(=O)[C@H](CC(C)C)NC(=O)OCc1ccccc1` [MG132] (Cbz-Leu-Leu-Leu-aldehyde), which “rescue of RBM20 protein expression under digoxin” value [3] is on record?
The value was “did not rescue RBM20 protein expression”.

Which IC50 [2, 10] does the source give for `C[C@]12CC[C@H]3[C@@H](CC[C@]4(O)C[C@@H](O)CC[C@]34CO)[C@@]1(O)CC[C@@H]2C1=CC(=O)OC1` [Strophanthidol] here?
The IC50 was 3840 ± 443 nM.

And the IC50 [4]?
Its IC50 is 3070 ± 634 nM.

For `C[C@H]1O[C@@H](O[C@H]2[C@@H](O)C[C@H](O[C@H]3[C@@H](O)C[C@H](O[C@H]4CC[C@@]5(C)[C@H](CC[C@@H]6[C@@H]5CC[C@]5(C)[C@@H](C7=CC(=O)OC7)CC[C@]65O)C4)O[C@@H]3C)O[C@@H]2C)C[C@H](O)[C@@H]1O` [Digitoxin], which IC50 [1] is on record?
Its IC50 is 0.25 nM.

And the “binding to RNA recognition motif (RRM) of RBM20” value [5]?
The value was “not the RNA recognition motif (RRM) of RBM20”.

And the “proteins associated with RBM20 dependent splicing down regulated (of 39)” value [6]?
Its value is 10.

And the “proteins associated with RBM20 dependent splicing upregulated (of 39)” value [6]?
Its value is 8.

And the “effect on RBM20-mediated titin splicing (in words)” value (shortened to “effect … (in words)”) ([2]; DLR assay, HEK293)?
Its value is “efficiently inhibit RBM20 mediated splicing”.

And the IC50 [2, 9]?
Its IC50 is 56 nM.

And the “Splicing Hill Coeff.” value [2, 11]?
The value was 2.3582 ± 1.3110.

And the IC50 [4]?
Its IC50 is 66.3 ± 5.5 nM.

What about the “Viability Hill Coeff.” value [4, 11] of the same compound?
Its value is 2.0260 ± 0.2941.

What about the “Viability Max” value ([4]; fit maximum of relative viability, head prints [μM], fits IC50 only) of the same compound?
The value was 1.0033 ± 0.0211.

And the “binding to human serum albumin (HSA)” value [7]?
Its value is “strongly bind”.

For `C[C@]12CCC(=O)C=C1CC[C@@H]1[C@@H]2[C@@H](O)C[C@@]2(C)[C@H]1CC[C@]2(O)C(=O)CO` [Hydrocortisone], which “effect … (in words)” value ([2]; DLR assay, HEK293) is on record?
The value was “did not interfere with splicing; also recorded: does not interfere with splicing activity; also recorded: do not interfere with RBM20 dependent splicing”.

Which “effect … (in words)” value ([2]; DLR assay, HEK293) does the source give for `C[C@]12CC[C@H](O)C[C@H]1CC[C@@H]1[C@@H]2CC[C@]2(C)[C@@H](C3=CC(=O)OC3)[C@@H](O)C[C@]12O` [Gitoxigenin] here?
The value was “independently validated”.

For `COc1ccc(-c2cc(=O)c3c(O)cc(O)c(-c4cc(-c5cc(=O)c6c(O)cc(O)cc6o5)ccc4OC)c3o2)cc1` [Isoginkgetin], which IC50 [2, 10] is on record?
The IC50 was 178000 nM.

What about the “dose at which an effect on RBM20 dependent splicing and general mRNA maturation was found” value ([2]; only at the highest toxic dose) of the same compound?
The value was 30 µM.

And the IC50 [4]?
The IC50 was 10800 ± 13100 nM.

And the “intron retention / mRNA maturation (in words)” value [8]?
Its value is “reduces alternative splicing and mRNA maturation; also recorded: affects mRNA maturation with increasing concentration”.

What does the source list for `C[C@]12CC[C@H](O)C[C@H]1CC[C@@H]1[C@@H]2CC[C@]2(C)[C@@H](C3=CC(=O)OC3)CC[C@]12O` [Digitoxigenin]?
binding to RNA recognition motif (RRM) of RBM20 [5]: not the RNA recognition motif (RRM) of RBM20; IC50 ([2]; HEK293, read-out: Splicing IC50): 417 ± 99.5 nM; IC50 [4]: 468 ± 26.9 nM; binding to human serum albumin (HSA) [7]: strongly bind

Which “effect … (in words)” value ([2]; DLR assay, HEK293) does the source give for Cymarol here?
The value was “independently validated”.

And the “concentration at which effect on titin splicing starts” value ([2]; DLR assay, N = 4)?
The value was less than 100 nM.

Which results are given for `CO[C@H]1C[C@H](O[C@H]2CC[C@@]3(C)[C@H](CC[C@@H]4[C@@H]3CC[C@]3(C)[C@@H](C5=CC(=O)OC5)[C@@H](OC(C)=O)C[C@]43O)C2)O[C@@H](C)[C@@H]1O` [Oleandrin]?
IC50 ([2]; DLR assay HEK293, read-out: splicing IC50): 20 nM; IC50 [4]: 30.5 ± 1.2 nM

Which “effect … (in words)” value ([2]; DLR assay, HEK293) does the source give for `CC(=O)O[C@H]1CC[C@@]2(C)[C@H](CC[C@@H]3[C@@H]2CC[C@]2(C)[C@@H](C4=CC(=O)OC4)CC[C@]32O)C1` [Digitoxigenin-3-acetate, Digitoxigenin 3-acetate] here?
Its value is “independently validated”.

Source: PMC5995442, “Drug discovery with an RBM20 dependent titin splice reporter identifies cardenolides as lead structures to improve cardiac filling” (PLoS ONE, 2018)
